Legend:
[1] = In-vivo radioactivity distribution experiment in normal mice (Reference Example 2); conditions: Reference Example 2 numbering; for Radioactivity concentration in the brain of mice: intravenous
Experimental: Labeled compounds, [^11C]Compounds 23 and 7, were diluted with physiological saline containing 10% ethanol. 100 μL of each of the labeled compounds was intravenously infused to five 5-week-old male ddY mice per group, the animals were decapitated at 2, 10, 30, or 60 min, blood was collected, and then weights and radioactivities thereof were measured.

[2] = target: T1, Aβ(1-42) aggregate (Homo sapiens, UniProt P05067); assay: Binding inhibition experiment using Aβ(1-42) aggregate, Ki values (Example 2); conditions: compound numbers of Example 2; for Ki: radioactive ligand [^125I]CL-NMe2, mean ± standard error of 3 experiments (compound 4: 6 experiments), read-out: Ki values calculated by inhibition experiment
T1 construct: Amyloid β protein (Human, 1-42) [TFA form] was purchased from Peptide Institute, Inc; purchased Peptide Institute, Inc
Experimental: As a radioactive iodine-125 (^125I), Iodine-125 (3.7 GBq/mL) manufactured by MP Biomedicals, Inc. was used. Reverse phase HPLC was performed at a flow rate of 1.0 mL/min using a Cosmosil 5C18-AR-II column (4.6×150 mm) manufactured by Nacalai Tesque Inc. and ultrapure water:acetonitrile=3:7 as an elution solvent. ^1HNMR was measured using Varian Gemini 300 and tetramethylsilane as an internal standard substance. Mass spectrometry was performed using JEOL IMS-DX300. Preparative TLC was performed using 12 PLC plates 20×20-cm-Silica gel 60 F254, 2 mm manufactured by MERCK. Amyloid β protein (Human, 1-42) was purchased from Peptide Institute, Inc., and special grade reagents were used as other reagents.
Aβ(1-42) was dissolved in 10 mM phosphate buffer containing 1 mM EDTA (pH 7.4) at a concentration of 0.25 mg/mL, and the mixture was incubated at 37° C. for 42 h to prepare an Aβ(1-42) aggregate.
[…] of 10% EtOH solution, […] of a solution of [^125I]4-diethylamino-4′-iodochalcone ([^125I]CL-NMe2) in 10% ethanol, and […] of a sample solution at various concentrations (0 to 20 mM) were mixed, […] of an Aβ(1-42) aggregate solution was finally added, and the mixture was allowed to stand at room temperature for 3 h. Aβ(1-42) aggregate-bound compounds and nonbound compounds were separated with a Brandel M-24R cell harvester using a Whatman GF/B filter. Radioactivities remaining on the filter after filtration were measured with a γ-counter, and inhibition curves were created using Graph Pad Prism 4.0 to calculate inhibition constants (Ki values).

[3] = In-vivo radioactivity distribution experiment using normal mice (Example 2); conditions: Example 2 numbering; for In-vivo radioactivity distribution: blood / In-vivo radioactivity distribution: brain / In-vivo radioactivity distribution: heart / In-vivo radioactivity distribution: intestine / In-vivo radioactivity distribution: kidney / In-vivo radioactivity distribution: liver / In-vivo radioactivity distribution: lung / In-vivo radioactivity distribution: pancreas / In-vivo radioactivity distribution: spleen / In-vivo radioactivity distribution: stomach: normal mice, intravenous
Experimental: Radioactive iodine labeling compounds were diluted with physiological saline containing 10% EtOH. To each of four or five 5-week-old male ddY mice (20 to 25 g) per group, […] of a labeled compound, [^125I]Compound 7, 10, 13, or 14 (0.2 to 0.4 mCi), was administered from the caudal vein. Animals were decapitated at 2, 10, 30, or 60 min, blood was collected, the major organs were isolated, and then weights and radioactivities thereof were measured.

T1 sequence (P05067 672-713 limits assumed): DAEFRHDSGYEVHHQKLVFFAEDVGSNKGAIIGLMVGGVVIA

CN(C)c1ccc(/C=C/C(=O)c2ccc(OCCOCCOCCF)cc2)cc1 [Compound 7 in Reference Example 2, (E)-1-(4-(2-(2-(2-fluoroethoxy)ethoxy)ethoxy)phenyl)-3-(4-(dimethylamino)phenyl)prop-2-en-1-one]
ratio of brain radioactivity at 60 min to that at 2 min after administration [1]: 8.1% | ratio of the radioactivity remaining in the brain at 30 min after administration to that at 2 min after administration [1]: 14.8% | Radioactivity concentration in the brain of mice ([1]; 2 min after administration, listed as [^11C] 7): 4.31 ± 0.33 % ID/g | Radioactivity concentration in the brain of mice ([1]; 2 min after administration, listed as [^11C]Compound 7): 4.31 % ID/g | Radioactivity concentration in the brain of mice ([1]; 10 min after administration): 1.38 ± 0.16 % ID/g | Radioactivity concentration in the brain of mice ([1]; 30 min after administration): 0.64 ± 0.07 % ID/g | Radioactivity concentration in the brain of mice ([1]; 60 min after administration, listed as [^11C] 7): 0.35 ± 0.03 % ID/g | Radioactivity concentration in the brain of mice ([1]; 60 min after administration, listed as [^11C]Compound 7): 0.35 % ID/g

CN(C)c1ccc(C(=O)/C=C/c2ccc(I)cc2)cc1 [Compound 10 in Example 2, 4-iodo-4′-dimethylaminochalcone]
Ki [2]: 13.3 ± 1.9 nM | In-vivo radioactivity distribution: blood ([3]; 2 min): 1.87 (0.23) percent of the dose/g | In-vivo radioactivity distribution: brain ([3]; 2 min): 2.77 (0.37) percent of the dose/g | In-vivo radioactivity distribution: heart ([3]; 2 min): 5.23 (0.61) percent of the dose/g | In-vivo radioactivity distribution: intestine ([3]; 2 min): 2.69 (0.43) percent of the dose/g | In-vivo radioactivity distribution: kidney ([3]; 2 min): 6.30 (0.85) percent of the dose/g | In-vivo radioactivity distribution: liver ([3]; 2 min): 13.99 (1.57) percent of the dose/g | In-vivo radioactivity distribution: lung ([3]; 2 min): 6.02 (0.60) percent of the dose/g | In-vivo radioactivity distribution: pancreas ([3]; 2 min): 3.85 (1.97) percent of the dose/g | In-vivo radioactivity distribution: spleen ([3]; 2 min): 2.35 (0.35) percent of the dose/g | In-vivo radioactivity distribution: stomach ([3]; 2 min): 0.76 (0.13) percent of the dose | In-vivo radioactivity distribution: blood ([3]; 10 min): 1.89 (0.61) percent of the dose/g | In-vivo radioactivity distribution: brain ([3]; 10 min): 2.04 (0.26) percent of the dose/g | In-vivo radioactivity distribution: heart ([3]; 10 min): 2.05 (0.37) percent of the dose/g | In-vivo radioactivity distribution: intestine ([3]; 10 min): 9.27 (1.36) percent of the dose/g | In-vivo radioactivity distribution: kidney ([3]; 10 min): 4.51 (1.29) percent of the dose/g | In-vivo radioactivity distribution: liver ([3]; 10 min): 10.29 (2.06) percent of the dose/g | In-vivo radioactivity distribution: lung ([3]; 10 min): 3.92 (0.76) percent of the dose/g | In-vivo radioactivity distribution: pancreas ([3]; 10 min): 2.12 (0.31) percent of the dose/g | In-vivo radioactivity distribution: spleen ([3]; 10 min): 1.52 (0.19) percent of the dose/g | In-vivo radioactivity distribution: stomach ([3]; 10 min): 0.89 (0.28) percent of the dose | In-vivo radioactivity distribution: blood ([3]; 30 min): 1.51 (0.40) percent of the dose/g | In-vivo radioactivity distribution: brain ([3]; 30 min): 0.63 (0.06) percent of the dose/g | In-vivo radioactivity distribution: heart ([3]; 30 min): 1.10 (0.16) percent of the dose/g | In-vivo radioactivity distribution: intestine ([3]; 30 min): 12.50 (2.49) percent of the dose/g | In-vivo radioactivity distribution: kidney ([3]; 30 min): 4.10 (1.15) percent of the dose/g | In-vivo radioactivity distribution: liver ([3]; 30 min): 6.69 (1.21) percent of the dose/g | In-vivo radioactivity distribution: lung ([3]; 30 min): 1.95 (0.25) percent of the dose/g | In-vivo radioactivity distribution: pancreas ([3]; 30 min): 0.85 (0.10) percent of the dose/g | In-vivo radioactivity distribution: spleen ([3]; 30 min): 0.82 (0.15) percent of the dose/g | In-vivo radioactivity distribution: stomach ([3]; 30 min): 0.73 (0.23) percent of the dose | In-vivo radioactivity distribution: blood ([3]; 60 min): 1.38 (0.54) percent of the dose/g | In-vivo radioactivity distribution: brain ([3]; 60 min): 0.42 (0.11) percent of the dose/g | In-vivo radioactivity distribution: heart ([3]; 60 min): 0.84 (0.26) percent of the dose/g | In-vivo radioactivity distribution: intestine ([3]; 60 min): 20.09 (5.48) percent of the dose/g | In-vivo radioactivity distribution: kidney ([3]; 60 min): 4.59 (1.57) percent of the dose/g | In-vivo radioactivity distribution: liver ([3]; 60 min): 7.06 (2.45) percent of the dose/g | In-vivo radioactivity distribution: lung ([3]; 60 min): 1.71 (0.29) percent of the dose/g | In-vivo radioactivity distribution: pancreas ([3]; 60 min): 0.84 (0.22) percent of the dose/g | In-vivo radioactivity distribution: spleen ([3]; 60 min): 0.89 (0.12) percent of the dose/g | In-vivo radioactivity distribution: stomach ([3]; 60 min): 2.17 (1.24) percent of the dose

CNc1ccc(C=CC(=O)c2ccc(I)s2)cc1 [Compound 13 in Example 2, 1-(5-iodo-2-thienyl)-3-(4-methylaminophenyl)-prop-2-en-1-one]
Ki [2]: 14.1 ± 0.6 nM | stability in the organism ([3]; in words: radioactivity accumulation in the stomach, retention in blood, deiodination): instability in the organism | In-vivo radioactivity distribution: blood ([3]; 2 min): 3.00 (0.83) percent of the dose/g | In-vivo radioactivity distribution: brain ([3]; 2 min): 2.56 (0.44) percent of the dose/g | In-vivo radioactivity distribution: heart ([3]; 2 min): 3.55 (0.57) percent of the dose/g | In-vivo radioactivity distribution: intestine ([3]; 2 min): 1.60 (0.32) percent of the dose/g | In-vivo radioactivity distribution: kidney ([3]; 2 min): 4.50 (1.00) percent of the dose/g | In-vivo radioactivity distribution: liver ([3]; 2 min): 8.41 (1.24) percent of the dose/g | In-vivo radioactivity distribution: lung ([3]; 2 min): 5.61 (1.33) percent of the dose/g | In-vivo radioactivity distribution: pancreas ([3]; 2 min): 3.73 (0.67) percent of the dose/g | In-vivo radioactivity distribution: spleen ([3]; 2 min): 2.06 (0.49) percent of the dose/g | In-vivo radioactivity distribution: stomach ([3]; 2 min): 1.48 (0.39) percent of the dose | In-vivo radioactivity distribution: blood ([3]; 10 min): 3.68 (0.70) percent of the dose/g | In-vivo radioactivity distribution: brain ([3]; 10 min): 1.13 (0.16) percent of the dose/g | In-vivo radioactivity distribution: heart ([3]; 10 min): 2.48 (0.36) percent of the dose/g | In-vivo radioactivity distribution: intestine ([3]; 10 min): 3.86 (0.20) percent of the dose/g | In-vivo radioactivity distribution: kidney ([3]; 10 min): 6.59 (1.34) percent of the dose/g | In-vivo radioactivity distribution: liver ([3]; 10 min): 13.29 (1.65) percent of the dose/g | In-vivo radioactivity distribution: lung ([3]; 10 min): 6.33 (1.42) percent of the dose/g | In-vivo radioactivity distribution: pancreas ([3]; 10 min): 2.53 (0.72) percent of the dose/g | In-vivo radioactivity distribution: spleen ([3]; 10 min): 4.00 (1.55) percent of the dose/g | In-vivo radioactivity distribution: stomach ([3]; 10 min): 5.13 (1.67) percent of the dose | In-vivo radioactivity distribution: blood ([3]; 30 min): 2.29 (0.32) percent of the dose/g | In-vivo radioactivity distribution: brain ([3]; 30 min): 0.28 (0.06) percent of the dose/g | In-vivo radioactivity distribution: heart ([3]; 30 min): 1.45 (0.17) percent of the dose/g | In-vivo radioactivity distribution: intestine ([3]; 30 min): 4.36 (1.49) percent of the dose/g | In-vivo radioactivity distribution: kidney ([3]; 30 min): 3.16 (0.80) percent of the dose/g | In-vivo radioactivity distribution: liver ([3]; 30 min): 5.10 (1.12) percent of the dose/g | In-vivo radioactivity distribution: lung ([3]; 30 min): 3.17 (0.52) percent of the dose/g | In-vivo radioactivity distribution: pancreas ([3]; 30 min): 1.48 (0.34) percent of the dose/g | In-vivo radioactivity distribution: spleen ([3]; 30 min): 2.06 (0.28) percent of the dose/g | In-vivo radioactivity distribution: stomach ([3]; 30 min): 9.94 (1.69) percent of the dose | In-vivo radioactivity distribution: blood ([3]; 60 min): 2.89 (0.49) percent of the dose/g | In-vivo radioactivity distribution: brain ([3]; 60 min): 0.15 (0.03) percent of the dose/g | In-vivo radioactivity distribution: heart ([3]; 60 min): 1.43 (0.29) percent of the dose/g | In-vivo radioactivity distribution: intestine ([3]; 60 min): 6.26 (1.78) percent of the dose/g | In-vivo radioactivity distribution: kidney ([3]; 60 min): 2.52 (0.48) percent of the dose/g | In-vivo radioactivity distribution: liver ([3]; 60 min): 4.32 (0.75) percent of the dose/g | In-vivo radioactivity distribution: lung ([3]; 60 min): 3.11 (0.66) percent of the dose/g | In-vivo radioactivity distribution: pancreas ([3]; 60 min): 1.76 (0.40) percent of the dose/g | In-vivo radioactivity distribution: spleen ([3]; 60 min): 2.52 (0.36) percent of the dose/g | In-vivo radioactivity distribution: stomach ([3]; 60 min): 14.32 (1.81) percent of the dose

COc1ccc(/C=C/C(=O)c2ccc(I)cc2)cc1OC [Compound 42 in Example 2, 3,4-dimethoxy-4′-iodochalcone]
binding affinity for the Aβ(1-42) aggregate ([2]; in words, derivatives with two substituents on Ring A): no compound showed a high binding affinity | Ki [2]: 223 ± 76.1 nM

Nc1ccc(C(=O)C=Cc2ccc(Br)s2)cc1 [Compound 44 in Example 2, 3-(5-bromo-2-thienyl)-1-(4-aminophenyl)-prop-2-en-1-one]
Ki [2]: 476 ± 47.9 nM

CNc1ccc(C(=O)C=Cc2ccc(Br)s2)cc1 [Compound 45 in Example 2, 3-(5-bromo-2-thienyl)-1-(4-methylaminophenyl)-prop-2-en-1-one]
Ki [2]: 198 ± 48.6 nM

CN(C)c1ccc(C(=O)C=Cc2ccc(Br)s2)cc1 [Compound 46 in Example 2, 3-(5-bromo-2-thienyl)-1-(4-dimethylaminophenyl)-prop-2-en-1-one]
Ki [2]: 106 ± 7.1 nM
